Source: patent publication US20180118707A1, “BETA-NAPHTHOISOFLAVONES, COMPOSITIONS CONTAINING, AND USES OF, SAME” (Thesan Pharmaceuticals, Inc., priority 2015, published 2018)

Columns and labels:
[1] = target: T1, Aryl Hydrocarbon Receptor (Homo sapiens, UniProt P35869); assay: AhR activation luciferase reporter in NHK-plox-XRE TATA-Luc cells; format: cell-based; settings: treatment for 24 h with 1-10 uM
T1 construct: endogenous in cells; host or cells: Normal human keratinocytes (NHK) transduced with the lentivector plox-XRE TATA-Luc (reporter only)
T1 sequence (P35869 11-848): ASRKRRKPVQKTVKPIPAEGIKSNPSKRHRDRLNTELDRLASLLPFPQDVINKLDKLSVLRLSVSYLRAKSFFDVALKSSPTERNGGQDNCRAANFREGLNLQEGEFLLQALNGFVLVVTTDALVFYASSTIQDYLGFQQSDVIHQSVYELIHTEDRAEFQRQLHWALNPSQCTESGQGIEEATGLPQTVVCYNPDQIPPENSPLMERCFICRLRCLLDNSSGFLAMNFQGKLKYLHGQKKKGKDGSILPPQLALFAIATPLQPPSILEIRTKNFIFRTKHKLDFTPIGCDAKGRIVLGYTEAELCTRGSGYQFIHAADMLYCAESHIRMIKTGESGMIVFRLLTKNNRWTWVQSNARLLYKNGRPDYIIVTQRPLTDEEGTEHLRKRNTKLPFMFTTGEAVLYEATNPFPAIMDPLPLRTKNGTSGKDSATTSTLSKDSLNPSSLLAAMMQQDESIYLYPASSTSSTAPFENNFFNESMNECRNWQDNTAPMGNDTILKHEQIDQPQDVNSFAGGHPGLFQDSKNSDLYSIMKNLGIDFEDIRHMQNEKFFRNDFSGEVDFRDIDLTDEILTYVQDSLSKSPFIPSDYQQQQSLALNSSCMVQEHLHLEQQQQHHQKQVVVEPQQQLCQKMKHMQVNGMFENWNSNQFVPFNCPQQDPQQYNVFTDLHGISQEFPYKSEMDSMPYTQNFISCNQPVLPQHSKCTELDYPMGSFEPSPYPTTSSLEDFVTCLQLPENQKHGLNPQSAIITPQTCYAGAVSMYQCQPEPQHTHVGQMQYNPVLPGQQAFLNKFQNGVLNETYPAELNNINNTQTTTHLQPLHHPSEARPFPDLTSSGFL
Description: AhR activation is also measured in human skin cells such as normal human keratinocytes (NHK cells) or A431 epidermoid cells stably transfected with the lentivector plox-XRE TATA-Luc. The NHK cells are cultured in a specific keratinocyte SFM medium (Glbco)+penicillin+streptomycin. At D0, the NHK cells are seeded Into 6-well plates in a proportion of approximately 15,000 cells/cm^2. After 24 h, the medium is replaced with fresh medium and the cells are transduced with the lentivector plox-XRE TATA-Luc. After 48 h, the cells are subcultured and maintained in culture, and tested for their reactivity to 3-phenyl-1H-benzo[f]chromen-1-one. The tests are carried out using the luciferase reporter assay system kit from Promega. At D0, the cells are seeded at a density of approximately 60% confluence, and then treated, at D1, with the test substance diluted to various concentrations in the appropriate culture medium. At D2, the cells are lysed in CLB buffer, and the lysate is clarified by centrifugation for 5 min at 10 000 g. The luciferase activity is measured in 20 microliters of lysate as recommended by the supplier, using the luminoskan luminometer (Thermo). […] Data is processed and ECso's can be calculated from standard data monitoring software.

[2] = target: T1, Aryl Hydrocarbon Receptor; assay: AhR activation luciferase reporter in Hep G2-plox-XRE TATA-Luc cells; format: cell-based; settings: treatment for 24 h with 1-10 uM
Description: AhR activation is measured in HEP G2 cells (hepatocytes, Hep G2 is a human liver carcinoma cell line) stably transfected with the lentivector plox-XRE TATA-Luc. The Hep G2 cells are cultured in a growing media consisting of DM EM (Glbco)+10% fetal bovine serum+penicillin+streptomycin. At D0, the Hep G2 cells are seeded into 12-well plates in proportions of approximately 30,000 cells/cm^2. After 24 h, the medium is replaced with fresh medium and the cells are transduced with the lentivector plox-XRE TATA-Luc. After 48 h, the cells are subcultured and maintained in culture, and tested for their reactivity to 3-phenyl-1H-benzo[f]chromen-1-one. The tests are carried out using the luciferase reporter assay system kit from Promega. At D0, the cells are seeded at a density of approximately 60% confluence, and then treated, at D1, with the test substance diluted to various concentrations in the appropriate culture medium. At D2, the cells are lysed in CLB buffer, and the lysate is clarified by centrifugation for 5 min at 10 000 g. The luciferase activity is measured in 20 microliters of lysate as recommended by the supplier, using the luminoskan luminometer (Thermo). […] Data is processed and ECso's can be calculated from standard data monitoring software.

[3] = tested on: CYP1A1 enzyme; assay: Induction of CYP1A1 enzyme in HepG2 cells, EROD assay; format: cell-based, human; settings: 10 uM, 24 h
Description: (§1) The formation of resorufin is quantified by fluorometry with a fluorescence plate reader. Fluorescence is determined at λex 570 nm and λem 590 nm. The amount of resorufin is calculated from a standard curve generated using 0 to 1 μM resorufin in water at ½ log dilutions. The remaining (i.e. all cells present at the beginning of analysis, since only supernatant is taken to assay EROD) live cells are subsequently utilized for the MIT cytotoxicity assay. MTT is made up in serum-free medium at 5 mg/ml. then added to the cells giving a final concentration of 10% (0.5 mg/ml MTT final) then incubated for 2 h. The medium is carefully removed, then MTT formazan is solubilized by adding 200 μl of DMSO and subsequently mixed on a plate shaker. The absorbance is measured spectra photometrically at 550 nm and background absorbance at 690 nm is subtracted. A standard curve generated using MIT formazan (dissolved in DMSO) from O—200 μM (0, 2, 5, 10, 20, 50, 100, 200 μM) is used to calculate the final experimental values which are then expressed as (wnol resarufin/mol MTT formazan) or as fold-Induction compared to solvent.

[4] = tested on: CYP1A1; assay: as above; format: cell-based, human; settings: human, probe 7-ethoxyresorufin (8 μM)
Description: as §1

## O=c1cc(-c2ccccc2)oc2ccc3ccccc3c12 [D, 3-Phenyl-1H-benzo[f]chromen-1-one, reference compound]
[1]
  induction of luciferase activity: significant induction
[2]
  induction of the luciferase activity: significant induction
[3]
  % change vs. TCDD EROD (HepG2) at 10 uM: 19%
[4]
  EC50 at 24 h: 1000 nM
